Reference: patent US6545002B1 (University of Virginia Patent Foundation, priority 1999, dated 2003)
Like-named read-outs stand apart in the source and are kept apart here.

Assays:
[1] = biological target: T1, human A3 receptors (hA3) (Homo sapiens, UniProt P0DMS8); test: Displacement of [125I]AB-MECA binding at human A3 receptors expressed in HEK-293 cells (Table 4)
T1 construct: expressed in transfected cells; host or cells: HEK-293
T1 sequence (P0DMS8 1-318): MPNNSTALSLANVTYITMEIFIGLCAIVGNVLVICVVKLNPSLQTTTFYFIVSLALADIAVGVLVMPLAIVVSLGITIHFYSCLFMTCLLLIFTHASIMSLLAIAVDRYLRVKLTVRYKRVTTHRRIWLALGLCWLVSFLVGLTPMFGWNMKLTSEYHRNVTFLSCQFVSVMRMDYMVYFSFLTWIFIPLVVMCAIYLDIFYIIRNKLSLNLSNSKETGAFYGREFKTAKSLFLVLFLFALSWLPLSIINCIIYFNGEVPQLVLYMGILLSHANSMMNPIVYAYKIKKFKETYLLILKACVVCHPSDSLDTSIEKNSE

[2] = biological target: T2, rat A1 receptors (rA1) (Rattus norvegicus, UniProt P25099); test: Displacement of [3H]R-PIA binding in rat brain (cerebral cortical) membranes
T2 construct: to A1 receptors from rat cerebral cortical membranes; from tissue; host or cells: rat cerebral cortical (brain) membranes
T2 sequence (P25099 1-326): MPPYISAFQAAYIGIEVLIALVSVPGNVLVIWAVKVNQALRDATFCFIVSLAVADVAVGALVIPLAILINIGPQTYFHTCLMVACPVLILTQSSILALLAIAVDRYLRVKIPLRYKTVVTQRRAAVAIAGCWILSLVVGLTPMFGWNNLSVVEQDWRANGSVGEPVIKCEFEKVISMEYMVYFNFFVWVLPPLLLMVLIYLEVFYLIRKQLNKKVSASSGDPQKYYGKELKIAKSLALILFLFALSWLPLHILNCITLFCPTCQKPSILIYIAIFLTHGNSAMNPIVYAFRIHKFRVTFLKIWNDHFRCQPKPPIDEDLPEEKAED
Experimental: (§1) Bruns, R. F. et al., Naunyn-Schmiedeberg's Arch. […] Binding of [^3H]R-N^6-phenylisopropyladenosine. Schwabe, U. et al., Naunyn-Schmiedeberg's Arch. […] (Dupont NEN, Boston, Mass.) to A2A receptors from rat striatal membranes was performed as described. […] All non-radioactive compounds were initially dissolved in DMSO, and diluted with buffer to the final concentration, where the amount of DMSO never exceeded 2%. Incubations were terminated by rapid filtration over Whatman GF/B filters, using a Brandell cell harvester (Brandell, Gaithersburg, Md.). The tubes were rinsed three times with 3 mL buffer each.
(§2) At least six different concentrations of competitor, spanning 3 orders of magnitude adjusted appropriately for the IC50 of each compound, were used. IC50 values, calculated with the nonlinear regression method implemented in (Graph-Pad Prism, San Diego, Calif.), were converted to apparent Ki values as described. Linden, J., J. Cycl. Nucl.

[3] = biological target: T3, rat A2A receptors (rA2A) (Rattus norvegicus, UniProt P30543); test: Displacement of [3H]CGS 21680 binding in rat striatal membranes
T3 construct: to A2A receptors from rat striatal membranes was performed as described; from tissue; host or cells: rat striatal membranes
Experimental: as §1, §2

[4] = biological target: recombinant human A2A receptors (hA2A) (Homo sapiens, UniProt P29274); test: Radioligand binding (125I-ZM241385) at recombinant human A2A receptors in HEK-293 cells
Experimental: (§3) The potency of the xanthine derivatives at human A2B receptors was evaluated using two binding assays. […] In order to determine selectivity, the xanthines were evaluated using standard binding assays at A1, A2A, and A3 receptors.

[5] = biological target: T4, human A2B receptors (hA2B) (Homo sapiens, UniProt P29275); test: Radioligand binding ([125I]ABOPX / [3H]ZM241385) at human A2B receptors expressed in HEK-293 cells
T4 construct: expressed in transfected cells; host or cells: HEK-293 (HEK-A2B, G418-selected)
T4 sequence (P29275 1-332): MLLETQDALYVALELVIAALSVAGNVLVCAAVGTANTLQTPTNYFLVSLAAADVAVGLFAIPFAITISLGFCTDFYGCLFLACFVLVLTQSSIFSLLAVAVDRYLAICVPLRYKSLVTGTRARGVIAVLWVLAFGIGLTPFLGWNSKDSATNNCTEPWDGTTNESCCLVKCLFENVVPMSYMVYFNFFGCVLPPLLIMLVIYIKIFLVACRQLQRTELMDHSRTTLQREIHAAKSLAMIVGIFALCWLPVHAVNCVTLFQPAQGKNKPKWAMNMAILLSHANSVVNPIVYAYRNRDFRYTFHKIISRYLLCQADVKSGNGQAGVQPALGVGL

[6] = biological target: T1, human A3 receptors (hA3); test: Displacement of [125I]ABA binding at human A3 receptors expressed in HEK-293 cells
[7] = biological target: T5, recombinant human A1 receptors (hA1) (Homo sapiens, UniProt P30542); test: Radioligand binding ([3H]CPX) at recombinant human A1 receptors in HEK-293 cells
T5 sequence (P30542 1-326): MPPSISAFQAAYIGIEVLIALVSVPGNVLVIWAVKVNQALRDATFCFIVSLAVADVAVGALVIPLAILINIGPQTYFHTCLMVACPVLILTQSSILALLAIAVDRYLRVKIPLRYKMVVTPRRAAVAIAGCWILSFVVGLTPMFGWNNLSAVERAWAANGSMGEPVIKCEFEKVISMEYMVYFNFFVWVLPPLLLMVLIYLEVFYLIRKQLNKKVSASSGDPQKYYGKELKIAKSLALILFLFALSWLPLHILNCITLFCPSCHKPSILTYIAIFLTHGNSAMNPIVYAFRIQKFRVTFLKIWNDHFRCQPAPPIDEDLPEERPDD
Experimental: as §3

[8] = read-out: hA2A Ki or IC50, Table 2
[9] = Table 2, read-out: rA1 Ki or IC50
[10] = Table 2, read-out: hA2B Ki or IC50
[11] = Table 2, read-out: rA2A Ki or IC50
[12] = Table 2, read-out: hA3 Ki or IC50
[13] = read-out: hA1 Ki or IC50, Table 2
[14] = read-out: Ki value at human A2B receptors
[15] = Table 4, unmarked value, first of two binding assays, read-out: hA2B Ki

recombinant human A2A receptors (hA2A), sequence (P29274 whole entry): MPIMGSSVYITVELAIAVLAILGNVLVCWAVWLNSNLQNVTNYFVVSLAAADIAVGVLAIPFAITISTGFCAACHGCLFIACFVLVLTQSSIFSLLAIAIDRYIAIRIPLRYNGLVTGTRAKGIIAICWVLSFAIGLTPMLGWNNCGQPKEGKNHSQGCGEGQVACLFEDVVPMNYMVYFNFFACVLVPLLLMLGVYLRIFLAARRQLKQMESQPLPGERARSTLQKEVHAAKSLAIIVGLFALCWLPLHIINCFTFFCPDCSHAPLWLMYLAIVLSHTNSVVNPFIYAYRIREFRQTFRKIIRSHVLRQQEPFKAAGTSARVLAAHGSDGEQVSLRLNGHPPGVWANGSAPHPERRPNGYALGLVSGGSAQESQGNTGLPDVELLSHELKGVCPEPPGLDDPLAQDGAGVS
T3 sequence (P30543 whole entry): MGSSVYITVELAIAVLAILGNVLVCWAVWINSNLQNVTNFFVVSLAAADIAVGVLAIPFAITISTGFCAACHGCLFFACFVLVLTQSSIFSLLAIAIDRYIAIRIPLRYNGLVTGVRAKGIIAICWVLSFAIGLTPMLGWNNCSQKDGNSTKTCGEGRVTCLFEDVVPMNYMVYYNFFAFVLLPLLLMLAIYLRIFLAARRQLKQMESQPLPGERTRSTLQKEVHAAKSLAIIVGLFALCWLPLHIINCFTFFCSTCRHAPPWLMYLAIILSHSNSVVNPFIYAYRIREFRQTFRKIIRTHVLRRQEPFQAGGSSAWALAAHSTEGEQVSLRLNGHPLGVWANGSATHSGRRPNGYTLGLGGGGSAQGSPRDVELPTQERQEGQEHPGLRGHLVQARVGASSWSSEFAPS

Ki [1]	Ki ([2]; Table 4, read-out: rA1 Ki)	Ki ([3]; Table 4, read-out: rA2A Ki)	melting point	rA1/hA2B ([5]; Table 4, Ki ratio)	Ki [5, 15]	SMILES	other results
			309 °C			CCCn1c(=O)c2[nH]c(-c3ccc(OCC(=O)Nc4ccc(Cl)cc4)cc3)nc2n(CCC)c1=O [Compound 31, 8-[4-[((4-Chloro)phenylcarbamoylmethyl)oxy]phenyl]-1,3-di-(n-propyl)xanthine]	Ki [4, 8]: 187 ± 38 nM; Ki [2, 9]: 6.35 ± 1.47 nM; Ki [5, 10]: 2.47 ± 0.71 nM; Ki [3, 11]: 995 ± 550 nM; Ki [6, 12]: 1870 nM; Ki [7, 13]: 49.7 ± 14.2 nM
			> 310 °C			CCCn1c(=O)c2[nH]c(-c3ccc(OCC(=O)Nc4ccc(Br)cc4)cc3)nc2n(CCC)c1=O [Compound 32, 8-[4-[((4-Bromo)phenylcarbamoylmethyl)oxy]phenyl]-1,3-di-(n-propyl)xanthine]	Ki [4, 8]: 1640 nM; Ki [2, 9]: 7.46 ± 2.66 nM; Ki [5, 10]: 2.35 ± 0.01 nM; Ki [3, 11]: 221 ± 36 nM; Ki [6, 12]: 2300 nM; Ki [7, 13]: 73.5 ± 23.3 nM
			302 to 303 °C			CCCn1c(=O)c2[nH]c(-c3ccc(/C=C/C(=O)NN4C(=O)C(C)=C(C)C4=O)cc3)nc2n(CCC)c1=O [Compound 34, 8-(4-(2-Carboxy-trans-vinyl)phenyl)-1,3-di-(n-propyl)xanthine N′,N′-[(1,2-Dimethyl)maleyl]hydrizide]	Ki ([4]; read-out: hA2A Ki, values marked (h), Table 3): 223 ± 55 nM; Ki ([2]; Table 3, read-out: rA1 Ki or IC50): 3.94 ± 1.2 nM; Ki ([5]; Table 3, read-out: hA2B Ki or IC50): 16.7 ± 3 nM; Ki ([3]; Table 3, read-out: rA2A Ki or IC50): 406 ± 105 nM; Ki ([6]; Table 3, read-out: hA3 Ki or IC50): 31 ± 3.1 nM; Ki ([7]; read-out: hA1 Ki, values marked (h), Table 3): 105 ± 5 nM
1560 nM	74.3 ± 6.6 nM	139 ± 32 nM		2.5	30.2 ± 0.5 nM	CCCn1c(=O)c2[nH]c(-c3ccc(OCC(=O)NN4C(=O)C[C@H](NC(=O)C(F)(F)F)C4=O)cc3)nc2n(CCC)c1=O [Compound 44, 8-[4-[(Carboxymethyl)oxy]phenyl]-1,3-di-(n-propyl)xanthine N,N-[((2S)-Trifluoroacetamido)succinyl]hydrazide]	
151 ± 99 nM	3.87 ± 1.2 nM	21.4 ± 6.1 nM		1.0	3.86 ± 0.7 nM	CCCn1c(=O)c2[nH]c(-c3ccc(OCC(=O)NN4C(=O)CCC(c5ccccc5)C4=O)cc3)nc2n(CCC)c1=O (centres unmarked) [Compound 45, 8-[4-[(Carboxymethyl)oxy]phenyl]-1,3-di-(n-propyl)xanthine N,N-[(2-Phenyl)glutaryl]hydrazide]	
551 ± 106 nM	203 ± 41 nM	1230 ± 270 nM		1.4	144 ± 11 nM	CCCn1c(=O)c2[nH]c(-c3ccc(OCC(=O)NN4C(=O)C=C(C)C4=O)cc3)nc2n(CCC)c1=O [Compound 46, 8-[4-[(Carboxymethyl)oxy]phenyl]-1,3-di-(n-propyl)xanthine N,N-Citraconylhydrazide]	
	11.1 ± 2.4 nM	126 ± 41 nM	> 310 °C	0.57	19.4 ± 6.2 nM	CCCn1c(=O)c2[nH]c(-c3ccc(OCC(=O)NN4C(=O)C(C)=C(C)C4=O)cc3)nc2n(CCC)c1=O [Compound 47, 8-[4-[(Carboxymethyl)oxy]phenyl]-1,3-di-(n-propyl)xanthine N,N-[(1,2-Dimethyl)maleyl]hydrazide]	Ki ([4]; read-out: hA2A Ki, values marked (h), Table 1, recombinant human A2A, HEK 293): 1970 nM; selectivity for human A2B versus human A1 receptors [5]: 160 fold; selectivity for human A2B versus human A2A receptors [5]: 100 fold; selectivity for human A2B versus human A3 receptors [5]: 35 fold; hA1/hA2B ([5]; Table 1, Ki ratio): 110; hA2A/hA2B ([5]; Table 1, Ki ratio): 74; hA3/hA2B ([5]; Table 1, Ki ratio): 25; Ki ([5]; Table 1, [125I]ABOPX, HEK-293, read-out: hA2B Ki or IC50): 26.6 ± 4 nM; Ki ([5]; Table 4, footnote a: [125I]-ABOPX, read-out: hA2B Ki (value marked ^a) (converted)): 33.8 nM; Ki [5, 14]: 19 nM; Ki ([6]; Table 4, footnote a: [125I]ABA, read-out: hA3 Ki (value marked ^a)): 670 ± 154 nM; Ki ([7]; read-out: hA1 Ki, values marked (h)^a, Table 4, vs [3H]CPX, HEK-293): 3030 nM
748 ± 234 nM	225 ± 76 nM	1540 ± 280 nM		3.4	66.7 ± 37 nM	CCCn1c(=O)c2[nH]c(-c3ccc(OCC(=O)NN4C(=O)C=C(c5ccccc5)C4=O)cc3)nc2n(CCC)c1=O [Compound 49, 8-[4-[(Carboxymethyl)oxy]phenyl]-1,3-di-(n-propyl)xanthine N,N-[(2-Phenyl)maleyl]hydrazide]	
3450 ± 1470 nM	95.8 ± 25.1 nM	2100 ± 630 nM		3.4	27.9 ± 8.5 nM	CCCn1c(=O)c2[nH]c(-c3ccc(OCC(=O)NN4C(=O)C(c5ccccc5)=C(c5ccccc5)C4=O)cc3)nc2n(CCC)c1=O [Compound 50, 8-[4-[(Carboxymethyl)oxy]phenyl]-1,3-di-(n-propyl)xanthine N,N-[(1,2-Diphenyl)maleyl]hydrazide]	
1060 ± 150 nM	134 ± 19 nM	813 ± 299 nM		2.6	51 ± 7 nM	CCCn1c(=O)c2[nH]c(-c3ccc(OCC(=O)NNC(=O)C4CC=CCC4C(=O)O)cc3)nc2n(CCC)c1=O (stereo not drawn) [Compound 51, 8-[4-[(Carboxymethyl)oxy]phenyl]-1,3-di-(n-propyl)xanthine N-[2-((1-Carboxy)-cis-4-cyclohexene)-carbonyl]hydrazide]	
1180 ± 700 nM	81.7 ± 31.2 nM	708 ± 169 nM		1.0	78.5 ± 20.5 nM	CCCn1c(=O)c2[nH]c(-c3ccc(OCC(=O)NNC(=O)C4=C(C(=O)O)CCC4)cc3)nc2n(CCC)c1=O [Compound 53, 8-[4-[(Carboxymethyl)oxy]phenyl]-1,3-di-(n-propyl)xanthine N-[2-((1-Carboxy)-1-cyclopentene)-carbonyl]hydrazide]	

SMILES	Ki [1]	Ki ([2]; Table 4, read-out: rA1 Ki)	Ki ([3]; Table 4, read-out: rA2A Ki)	melting point	rA1/hA2B ([5]; Table 4, Ki ratio)	Ki [5, 15]	other results
CCCn1c(=O)c2[nH]c(-c3ccc(OCC(=O)NN)cc3)nc2n(CCC)c1=O [Compound 4f]	498 ± 139 nM	16 ± 0.5 nM	63.8 ± 21.3 nM				
CCCn1c(=O)c2[nH]c(-c3ccc(OCC(=O)Nc4ccc(I)cc4)cc3)nc2n(CCC)c1=O [Compound 33, 8-[4-[((4-Iodo)phenylcarbamoylmethyl)oxy]phenyl]-1,3-di-(n-propyl)xanthine]				> 310 °C			Ki [4, 8]: 5140 nM; Ki [2, 9]: 15.7 ± 4.2 nM; selectivity for human A2B versus human A1 receptors [5]: 140 fold; selectivity for human A2B versus human A2A receptors [5]: 2400 fold; selectivity for human A2B versus human A3 receptors [5]: 600 fold; Ki [5, 14]: 2.13 nM; Ki [3, 11]: 152 ± 47 nM; Ki [6, 12]: 1270 nM; Ki [7, 13]: 293 ± 67 nM
